For assay [1], the target named is T1, Muscarinic acetylcholine receptor M5 (Homo sapiens) (UniProt P08912).
T1 sequence (whole entry): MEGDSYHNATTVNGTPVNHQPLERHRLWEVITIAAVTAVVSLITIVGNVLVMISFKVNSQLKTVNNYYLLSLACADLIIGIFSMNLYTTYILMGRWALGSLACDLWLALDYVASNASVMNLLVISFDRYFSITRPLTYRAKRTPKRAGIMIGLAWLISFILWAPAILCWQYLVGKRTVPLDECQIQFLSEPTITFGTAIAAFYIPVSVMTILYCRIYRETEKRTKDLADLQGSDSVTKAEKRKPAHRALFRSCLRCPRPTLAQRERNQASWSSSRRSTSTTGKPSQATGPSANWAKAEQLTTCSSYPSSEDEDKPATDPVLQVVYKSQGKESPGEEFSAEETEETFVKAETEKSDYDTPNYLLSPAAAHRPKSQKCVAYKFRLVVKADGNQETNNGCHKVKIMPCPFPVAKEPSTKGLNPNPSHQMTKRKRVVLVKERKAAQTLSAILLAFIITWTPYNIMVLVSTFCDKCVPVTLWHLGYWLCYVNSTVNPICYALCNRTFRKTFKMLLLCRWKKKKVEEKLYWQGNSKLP
Nature of the assay: Ability to stimulate inositol phosphate(PI) accumulation in CHO cells expressing human m5 receptor (max. concentration. 100 uM). In kind it is functional, cell-based.

Assay [2] concerns the target T2, Muscarinic acetylcholine receptor M4 (Homo sapiens) (UniProt P08173).
T2 sequence (whole entry): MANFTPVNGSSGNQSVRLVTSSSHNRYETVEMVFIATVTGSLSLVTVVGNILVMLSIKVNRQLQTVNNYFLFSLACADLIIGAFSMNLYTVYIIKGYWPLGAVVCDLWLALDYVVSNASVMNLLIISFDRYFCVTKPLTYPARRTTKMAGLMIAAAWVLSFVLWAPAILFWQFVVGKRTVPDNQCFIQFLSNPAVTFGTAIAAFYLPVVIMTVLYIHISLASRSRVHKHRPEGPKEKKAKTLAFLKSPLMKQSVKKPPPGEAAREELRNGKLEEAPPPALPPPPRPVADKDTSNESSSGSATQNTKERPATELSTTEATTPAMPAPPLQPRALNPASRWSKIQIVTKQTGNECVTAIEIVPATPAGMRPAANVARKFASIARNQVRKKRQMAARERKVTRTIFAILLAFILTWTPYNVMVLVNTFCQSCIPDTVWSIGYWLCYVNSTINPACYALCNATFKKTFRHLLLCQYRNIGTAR
Description: Inhibitory activity against forskolin-stimulated accumulation of cyclic adenosine monophosphate (cAMP) in CHO cells expressing human m4 receptor (max. concentration. 1 mM). In kind it is functional, cell-based.

Assay [3] has as its target T3, Muscarinic acetylcholine receptor M2 (Homo sapiens) (UniProt P08172).
T3 sequence (whole entry): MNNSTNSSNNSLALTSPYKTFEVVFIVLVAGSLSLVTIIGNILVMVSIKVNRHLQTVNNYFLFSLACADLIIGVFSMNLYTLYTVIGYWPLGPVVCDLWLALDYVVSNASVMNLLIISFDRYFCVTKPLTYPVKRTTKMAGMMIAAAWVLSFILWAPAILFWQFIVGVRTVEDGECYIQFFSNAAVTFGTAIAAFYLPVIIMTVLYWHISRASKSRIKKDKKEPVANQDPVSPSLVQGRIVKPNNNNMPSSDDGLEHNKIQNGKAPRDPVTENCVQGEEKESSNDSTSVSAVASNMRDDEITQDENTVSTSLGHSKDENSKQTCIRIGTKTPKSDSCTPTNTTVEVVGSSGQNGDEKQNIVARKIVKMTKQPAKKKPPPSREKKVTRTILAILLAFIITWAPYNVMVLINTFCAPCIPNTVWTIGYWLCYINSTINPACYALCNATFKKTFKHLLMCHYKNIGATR
Description: Inhibitory activity against forskolin-stimulated accumulation of cyclic adenosine monophosphate (cAMP) in CHO cells expressing human m2 receptor (max. concentration. 1 mM). Format: functional, cell-based.

Assay [4] concerns the target Muscarinic acetylcholine receptor. Nature of the assay: Binding affinity towards muscarinic receptor using [3H]quinuclidinyl benzilate (QNB) to label antagonist sites in membrane preparations from rat neocortex.
The target of assay [5] is T4, Muscarinic acetylcholine receptor (Rattus norvegicus) (UniProt P08482+P08483+P08485+P08911+P10980). Description: Ratio of QNB/CMD binding affinities to predict agonistic efficacy at muscarinic receptor. Format: protein assay.
Assay [6] concerns the target Muscarinic acetylcholine receptor. Nature of the assay: Binding affinity towards muscarinic receptor using [3H]cis-methyldioxolane (CMD) to label agonist sites in membrane preparations from rat neocortex. In kind it is tissue-based.
The target in assay [7] is T4, Muscarinic acetylcholine receptor (Rattus norvegicus). Nature of the assay: Binding affinity towards muscarinic receptor using [3H]cis-methyldioxolane (CMD) to label agonist sites in membrane preparations from rat neocortex at 1 uM. Format: tissue-based.
Assay [8] shares this target. Nature of the assay: Binding affinity towards muscarinic receptor using [3H]quinuclidinyl benzilate (QNB) to label antagonist sites in membrane preparations from rat neocortex at 100 nM.
Assay [9] has the same target. Description: Binding affinity towards muscarinic receptor using [3H]cis-methyldioxolane (CMD) to label agonist sites in membrane preparations from rat neocortex at 100 nM. Format: tissue-based.

As for `C[N+](C)(C)CCOC(N)=O`, the PI in assay [1] was found to be 100%. The inhibition (as a rule, the change of the read-out against control, counted positive when it falls) in assay [2] turned out to be 60%; in assay [3], 58%.
Regarding `C(#Cc1ccc2c(c1)OCO2)CO/N=C1\CN2CCC1C2` (stereo not given), the IC50 (commonly the concentration that inhibits the measured activity by half) is 2.547 µM in assay [4] and 0.023 µM in [6]. Moreover, the Ratio in assay [5] is 110.
For `COc1ccc(C#CCO/N=C2\CN3CCC2C3)cc1OC` (stereo not given) the same measures were 42.449 µM, 0.14 µM and 303.
Regarding `Clc1cc(Cl)cc(C#CCO/N=C2\CN3CCC2C3)c1` (stereo not given), the inhibition in [7] worked out at 53%; in assay [8], 18%.
With `COc1ccc(C#CCO/N=C2\CN3CCC2C3)cc1` (stereo not given), the figures for the IC50 in assay [4] and in [6] were 13.101 µM and 0.11 µM, respectively. Moreover, the Ratio in assay [5] is 119.
For the compound `Fc1ccc(C#CCO/N=C2\CN3CCC2C3)cc1` (stereo not given), the results for the IC50 in assay [4] and in [6] were 6.092 µM and 0.03 µM, respectively. In addition, the Ratio in [5] is 204.
Turning to `Cc1ccccc1C#CCO/N=C1\CN2CCC1C2` (stereo not given), the inhibition in assay [8] amounted to 56%; in assay [9], 82%.
For `COc1ccccc1C#CCO/N=C1\CN2CCC1C2` (stereo not given), the IC50 was determined as 17.658 µM in assay [4] and 0.219 µM in assay [6]. For the same compound, the Ratio in assay [5] was 81.
Take `O=[N+]([O-])c1cccc(C#CCO/N=C2\CN3CCC2C3)c1` (stereo not given): the IC50 is 6.399 µM in [4] and 0.028 µM in assay [6]. Also, the Ratio in assay [5] was 226.
In assay [1], `COc1cccc(C#CCO/N=C2\CN3CCC2C3)c1` (stereo not given) showed a PI of 11%. In addition, the inhibition in assay [2] and in assay [3] was 0% in each case. Besides, the IC50 worked out at 6.927 µM in assay [4] and 0.028 µM in assay [6]. For the same compound, the Ratio in assay [5] was 250.
As to `Cc1cccc(C#CCO/N=C2\CN3CCC2C3)c1` (stereo not given), the IC50 in [4] amounted to 5.195 µM; in assay [6], 0.028 µM. The Ratio in assay [5] is 186.
As for `Clc1ccccc1C#CCO/N=C1\CN2CCC1C2` (stereo not given), the IC50 in [4] is 1.305 µM; in assay [6] it was 0.012 µM. The Ratio in assay [5] is 107.
For `Fc1cccc(C#CCO/N=C2\CN3CCC2C3)c1` (stereo not given), in that order: 4.925 µM, 0.037 µM and 132.
Turning to `Cc1ccc(C#CCO/N=C2\CN3CCC2C3)cc1` (stereo not given), the IC50 in assay [4] turned out to be 11.089 µM; in assay [6], 0.089 µM. Also, the Ratio in assay [5] was 125.
`Fc1ccccc1C#CCO/N=C1\CN2CCC1C2` (stereo not given): the values for the IC50 in [4] and in assay [6] were 4.443 µM and 0.028 µM, respectively. Moreover, in assay [5], the Ratio was 159.
Turning to `C(#Cc1ccc2c(c1)OCCO2)CO/N=C1\CN2CCC1C2` (stereo not given), the inhibition in assay [7] stood at 39%; in assay [8], 0%.
For the compound `FC(F)(F)c1cc(C#CCO/N=C2\CN3CCC2C3)cc(C(F)(F)F)c1` (stereo not given), the figures for the inhibition in [7] and in assay [8] were 55% and 18%, respectively.
Take `Clc1cccc(C#CCO/N=C2\CN3CCC2C3)c1` (stereo not given): the values for the IC50 in [4] and in assay [6] were 3.882 µM and 0.019 µM, respectively. The Ratio in assay [5] is 202.
Compound `C(#Cc1ccccc1)CO/N=C1\CN2CCC1C2` (stereo not given) came in with a PI in [1] of 1%. Also, the inhibition in assay [2] and in assay [3] was 0% each time. Further, the IC50 in assay [4] came to 5.012 µM; in assay [6], 0.046 µM. In addition, the Ratio in assay [5] is 109.
Consider `FC(F)(F)c1cccc(C#CCO/N=C2\CN3CCC2C3)c1` (stereo not given), for which the IC50 in assay [4] was determined as 4.237 µM; in assay [6], 0.032 µM. In assay [5], the Ratio was 134.
For `Clc1ccc(C#CCO/N=C2\CN3CCC2C3)cc1` (stereo not given) the same measures were 6.3 µM, 0.053 µM and 119.

(Values after ChEMBL document CHEMBL1128858, “Z-()-1-azabicyclo[2.2.1]heptan-3-one, O-(3-aryl-2-propynyl) oximes as potential m1-subtype selective muscarinic agonists” (Bioorg Med Chem Lett, 1995).)
